Calls of active or inactive are those of the source. No cut-off for these calls is given here.
Experiments:
[1] = system: LLC-PK1; experiment: Cytoprotective activity against pig LLC-PK1 cells assessed as reduction in FK506-induced cytotoxicity incubated for 2 hrs followed by FK506 stimulation and measured after 24 hrs by MTT assay; type: functional, cell-based; conditions: Sus scrofa, dose 12.5-100 µM, time 26.0 hrs
[2] = Antioxidant activity assessed as reduction in FK506-induced ROS production by […] assay; type: functional; conditions: dose 0.1-100 µM
[3] = species on record: Rattus norvegicus; experiment: Nephroprotective activity in Sprague-Dawley rat assessed as reduction in FK506-induced kidney dysfunction by measuring decrease in serum creatinine level measured after 14 days; type: functional, organism-based; conditions: time 14.0 day

Row | Structure (SMILES) | Activity [1] | Activity [2] | Activity [3]
1 | O=C(O)c1cc(O)c(O)c(O)c1 | Dose-Dependent Effect | Dose-Dependent Effect | Active
2 | O=C1O[C@H]([C@@H](O)CO)C(O)=C1O |  | Active | 
3 | O=C(O[C@@H]1Cc2c(O)cc(O)cc2O[C@@H]1c1cc(O)c(O)c(O)c1)c1cc(O)c(O)c(O)c1 | Dose-Dependent Effect | Dose-Dependent Effect | 

From ChEMBL document CHEMBL4814050, “Identification of gallic acid as a active ingredient of Syzygium aromaticum against tacrolimus-induced damage in renal epithelial LLC-PK1 cells and rat kidney” (Bioorg Med Chem Lett, 2021)
